# Read-outs that look alike come from different tables or passages of the source.
# What was measured:
# [1] = test system: Biofilms of Pseudomonas aeruginosa (12 isolates from Cystic Fibrosis patients); experiment: Biofilm susceptibility to antibiotics and antibiotic combinations (peg lid device), 24 h exposure; format: cell-based; details: count apparently resistant isolates of 12
# [2] = test system: P. aeruginosa ATCC 27853 biofilms; experiment: Peg lid biofilm susceptibility testing, qualitative (MBEC) and quantitative (MBIC, MBCB) end points; format: cell-based, Pseudomonas aeruginosa
# Description: Qualitative end points. According to CLSI standards % the MIC is defined as the lowest concentration of an antimicrobial agent that prevents visible growth in the challenge medium after a set period of incubation. By contrast, the MBEC is defined as the lowest concentration of antimicrobial agent that prevents visible growth from occurring in the recovery medium used to collect biofilm cells^17. The MBEC can be determined using the protocol presented here, and is measured after the recovery medium has been incubated for a suitable period of time, the length of which depends on the growth rate of the microorganism. Quantitative end points. […] This definition can be extended to both planktonic and biofilm cells and these end points will be denoted as the MBCP and MBCB, respectively. […] The technique presented here allows the MBCB or MLCB to be calculated. Another measure of biofilm susceptibility that has been proposed is the minimum biofilm inhibitory concentration (MBIC)^38,39. Here, the MBIC is defined as the lowest concentration of an antimicrobial at which there is no time-dependent increase in biofilm MVCC when an early exposure time is compared with a later exposure time. The MBIC thus corresponds to the intersecting point of two concentration-dependent killing curves, and therefore, it is possible to distinguish between biofilm resistance and tolerance on the basis of VCC (FIG. 8). (iii) Read the OD of the microtiter plate wells at 650 nm using the microtiter plate reader and visually inspect the wells for growth. […] (viii) Score the spot plates for growth by colony counting using the same approach described in Step 8. Determine the mean VCCs and SD for the broth culture using equations (2) and (3). Calculate biofilm mean log-killing and SD using equation (5). […] The biofilms were then exposed to gentamicin for either 2 or 20 hours; qualitative and quantitative determinations of biofilm cell survival were then performed. For ease of understanding, we focus on a single antibiotic.
# [3] = test system: Pseudomonas aeruginosa (12 isolates from Cystic Fibrosis patients), planktonic bacteria; experiment: Planktonic susceptibility to antibiotics and antibiotic combinations (challenge plate), 24 h exposure; format: cell-based
# [4] = 12 isolates from Cystic Fibrosis patients, 24 hours exposure, count apparently resistant isolates of 12
Compound,"Pseudomonas resistance to individual antibiotics and antibiotic combinations, Biofilm [1]","Pseudomonas resistance to individual antibiotics and antibiotic combinations, Planktonic [3, 4]",further results
gentamicin,12,8,"MBCB ([2]; 2 h exposure): > 512 µg/mL; MBCB ([2]; 20 h exposure): 512 µg/mL; MBEC ([2]; exposed for 2 or 20 hours, biofilms grown in LB broth): > 512 µg/mL; MBIC ([2]; from VCC, 2 h compared with 20 h exposure): 128 µg/mL"
"C[C@H]1[C@H](NC(=O)/C(=N\OC(C)(C)C(=O)O)c2csc(N)n2)C(=O)N1S(=O)(=O)O [AZTR, Aztreonam]",,,"Pseudomonas resistance to individual antibiotics and antibiotic combinations, Planktonic [3]: 0"
"NC[C@H]1O[C@H](O[C@H]2[C@H](O)[C@@H](O[C@H]3O[C@H](CO)[C@@H](O)[C@H](N)[C@H]3O)[C@H](N)C[C@@H]2N)[C@H](N)C[C@@H]1O [TB, Tobramycin]",12,3,
"NCC[C@H](O)C(=O)N[C@@H]1C[C@H](N)[C@@H](O[C@H]2O[C@H](CN)[C@@H](O)[C@H](O)[C@H]2O)[C@H](O)[C@H]1O[C@H]1O[C@H](CO)[C@@H](O)[C@H](N)[C@H]1O [AK, Amikacin]",11,8,
C[C@@H](O)[C@H]1C(=O)N2C(C(=O)O)=C(SCCN=CN)C[C@H]12 [IMP],12,12,
"CC(C)(O/N=C(\C(=O)N[C@@H]1C(=O)N2C(C(=O)[O-])=C(C[n+]3ccccc3)CS[C@H]12)c1csc(N)n1)C(=O)O [CFTZ, Ceftazidime]",12,3,
"O=C(O)c1cn(C2CC2)c2cc(N3CCNCC3)c(F)cc2c1=O [CIPRO, Ciprofloxacin]",,,"Pseudomonas resistance to individual antibiotics and antibiotic combinations, Planktonic [3]: 4"
